Assay results as given in patent US11504355B2, “Ergothioneine compositions and methods for maintaining and/or increasing vitamin C levels in cells and organisms” (Mironova Innovations, LLC, priority 2018, dated 2022).

Tested on: Human skin fibroblasts
Test: Ascorbic acid colorimetric assay in human skin fibroblasts, with or without alloxan-induced oxidative stress
Format: cell-based
Method: This example provides methods and results from studies evaluating the effect of ergothioneine on vitamin C in human fibroblast cells. Human skin fibroblasts were cultured for 18 hours in T-25 flasks. Cells were incubated with 1) control solution, 2) magnesium ascorbyl phosphate, or 3) magnesium ascorbyl phosphate+ergothioneine (1:100). Cells in each group were then treated for 6 hours with a) control solution or b) 500 μM alloxan to induce oxidative stress. All samples were assayed for ascorbic acid with an ascorbic acid colorimetric assay (Biovision catalog no. K671). Results are provided in the table below, where ascorbic acid content (nmol) in human skin fibroblasts per one million cells is reported.

[1] = 0.158% of test solution, no alloxan
[2] = 0.158% of test solution, with 500 uM Alloxan (6 hours, oxidative stress)
[3] = 0.5% of test solution, no alloxan
[4] = 0.5% of test solution, with 500 uM Alloxan (6 hours, oxidative stress)
[5] = 1.58% of test solution, no alloxan
[6] = 1.58% of test solution, with 500 uM Alloxan (6 hours, oxidative stress)
[7] = 5% of test solution, no alloxan
[8] = 5% of test solution, with 500 uM Alloxan (6 hours, oxidative stress)

O=C1O[C@H]([C@@H](O)CO)C([O-])=C1OP(=O)([O-])[O-].O=C1O[C@H]([C@@H](O)CO)C([O-])=C1OP(=O)([O-])[O-].[Mg+2].[Mg+2].[Mg+2] [MAP solution, magnesium ascorbyl phosphate]
ascorbic acid content in human skin fibroblasts per one million cells, Ave [1]: 10.14 nmol | ascorbic acid content in human skin fibroblasts per one million cells, Sample A [1]: 9.94 nmol | ascorbic acid content in human skin fibroblasts per one million cells, Sample B [1]: 10.34 nmol | ascorbic acid content in human skin fibroblasts per one million cells, Ave [2]: 4.93 nmol | ascorbic acid content in human skin fibroblasts per one million cells, Sample A [2]: 4.84 nmol | ascorbic acid content in human skin fibroblasts per one million cells, Sample B [2]: 5.01 nmol | ascorbic acid content in human skin fibroblasts per one million cells, Ave [3]: 21.51 nmol | ascorbic acid content in human skin fibroblasts per one million cells, Sample A [3]: 21.68 nmol | ascorbic acid content in human skin fibroblasts per one million cells, Sample B [3]: 21.33 nmol | ascorbic acid content in human skin fibroblasts per one million cells, Ave [4]: 9.77 nmol | ascorbic acid content in human skin fibroblasts per one million cells, Sample A [4]: 9.54 nmol | ascorbic acid content in human skin fibroblasts per one million cells, Sample B [4]: 9.99 nmol | ascorbic acid content in human skin fibroblasts per one million cells, Ave [5]: 49.89 nmol | ascorbic acid content in human skin fibroblasts per one million cells, Sample A [5]: 49.23 nmol | ascorbic acid content in human skin fibroblasts per one million cells, Sample B [5]: 50.54 nmol | ascorbic acid content in human skin fibroblasts per one million cells, Ave [6]: 12.17 nmol | ascorbic acid content in human skin fibroblasts per one million cells, Sample A [6]: 11.88 nmol | ascorbic acid content in human skin fibroblasts per one million cells, Sample B [6]: 12.46 nmol | ascorbic acid content in human skin fibroblasts per one million cells, Ave [7]: 50.77 nmol | ascorbic acid content in human skin fibroblasts per one million cells, Sample A [7]: 50.20 nmol | ascorbic acid content in human skin fibroblasts per one million cells, Sample B [7]: 51.35 nmol | ascorbic acid content in human skin fibroblasts per one million cells, Ave [8]: 13.37 nmol | ascorbic acid content in human skin fibroblasts per one million cells, Sample A [8]: 13.37 nmol | ascorbic acid content in human skin fibroblasts per one million cells, Sample B [8]: 13.37 nmol

C[N+](C)(C)[C@@H](Cc1c[nH]c(=S)[nH]1)C(=O)[O-] [ergothioneine]
increase of ascorbic acid levels following oxidative stress (1:100 ergothioneine (EGT) to magnesium ascorbyl phosphate (MAP), following oxidative stress): up to 300% | ascorbic acid absorbed by the fibroblast cells with versus without ergothioneine (FIG. 1, no oxidative stress): equally absorbed | amount of ascorbic acid in fibroblast cells following oxidative stress in the presence of ergothioneine (FIG. 3, following oxidative stress): synergistically increased | boost of vitamin C levels in a cell (synergistic amount of ergothioneine, summary of the examples): three-fold or more
